Test results published in patent US20200155478A1, “XIBORNOL FOR USE IN THE TREATMENT OF ACNE VULGARIS” (ABIOGEN PHARMA S.P.A., priority 2017, published 2020).
≈ marks a conversion by molar mass, not a printed value.

Assays:
Propionibacterium acnes [1] = assay: Determination of the minimum inhibitory concentration (MIC), 96-well broth plate, OD 600 nm and PrestoBlue; type: cell-based
Method: (§1) Two strains of Propionibacterium acnes were used for this test: the Grerath strain (ATCC-11827) and the VPI 0389 strain (ATCC-6919).
(§2) Clostridial differential broth (CDB, liquid medium) and reinforced clostridial agar (RCA, solid medium) were used for the culture. Growth occurred under anaerobic conditions obtained in a 7.0 L GENBOX JAR.
(§3) The anaerobic conditions were obtained by activating the Anaerocult A preparation and the anaerobiosis control was assessed by using ANAEROTEST strips for microbiology.
(§4) The Propionibacterium acnes was incubated at 37° C. for 72 hours.
Propionibacterium acnes strains were reactivated from ATCC vials, rehydrated with CDB medium, and then seeded on RCA plates.
To cultivate Propionibacterium acnes in broth, isolated colonies were taken from culture plates and inoculated in the CBD medium.
After culturing, the concentration of bacterial cells was normalised using the McFarland 0.5 standard.
A 96-well plate was prepared in order to establish the minimum inhibitory concentration; the xibornol was dissolved in a 4% isopropanol solution in various concentrations, and the samples were prepared according to the experimental plan shown in the following table 1.
All the wells in rows D, E, F and the first three wells from the left in row H contained Propionibacterium acnes at the final concentration of 5×10^5 bacteria/mL.
Row G (wells 1, 2, 3) was the negative control and contained only the culture medium, without bacteria, xibornol, or isopropanol.
Row H (wells 1,2,3) was the positive control and contained the bacterial culture without xibornol or isopropanol.
Unmarked wells were empty.
The reading of the plate, after an incubation under anaerobic conditions at 37° C., was performed after 72 hours.
A first spectrophotometer reading was taken, including measurement of the OD (optical density) at 600 nm.
To highlight the presence or absence of bacterial growth on the plate described above, PrestoBlue was also used, which is a resazurin-based solution which uses the reducing power of cells to measure cell proliferation. Said solution is blue and turns into red upon contact with live bacterial cells.
After having incubated the plate with the PrestoBlue and read the fluorescence values by using a Victor 3 Wallac microplate reader, the data were confirmed.

[2] = tested on: RHE EPISKIN artificial epidermis; assay: Skin irritation and sensitisation test (OECD TG 404), MTT viability; type: cell-based, human; conditions: liquid formulations of xibornol, isopropanol and PBS buffer; 42' contact, assessed after 42 hours
Method: In order to establish the usable concentrations of xibornol in solution for the production of pharmaceutical forms intended for external topical use, a skin irritation and sensitisation test was carried out, according to standard OECD TG 404, method B.4, Annex V, Directive 67/548/EEC. A RHE EPISKIN artificial epidermis unit was used for the test. The kit consisted of 24 reconstructed epidermis units with a total area of 0.33 cm^2. Each unit consisted of a collagen matrix with a stratified, differentiated epidermis derived from human keratinocytes placed on top thereof. The substances to be tested were placed in contact (42′) with the epidermis and the effects assessed after 42 hours, incubating the units with MTT (3-(4,5-dimethylthiazol-2-yl)-2,5-diphenyltetrazolium bromide) which, under the experimental conditions, reduced to formazan upon contact with metabolically active cells, turning the coloured solution from yellow into blue. Since the obtained colour is directly proportional to the concentration of formazan, and therefore to the cell viability, after incubation with MTT for 3 hours, optical density readings were taken by using the spectrophotometer (DO 572-650 nm).

[3] = tested on: inflammatory cytokine IL-8; assay: Mouse model for Acne vulgaris induced by Propionibacterium acnes, IL-8 ELISA in ear homogenate supernatants; type: in vivo, Balb/c strain mice
Method: For the experiment, female Balb/c strain mice were used, grouped according to the experimental plan shown below in Table 5: [table] The sham group consisted of mice which received an intradermal injection, in each ear, of 25 μl of D-PBS (Dulbecco's phosphate buffered saline), while the other two groups consisted of mice which received an intradermal injection, in each ear, of 25 μl of D-PBS containing 10^8 CFU (colony-forming units) of Propionibacterium acnes. As of the day following the injection: • the sham group of mice was not treated; • the control group was treated, once a day, for 7 consecutive days, directly to the sites of inoculation of the bacterium, with a topical application of the formulation without active principle, i.e. with the carrier, consisting of three parts of paraffin oil and two parts of filamentary vaseline; • the […], once a day, for 7 consecutive days, directly to the sites of inoculation of the bacterium), with a topical application of the formulation containing xibornol in a concentration of 0.1% (corresponding to 0.79 mg/mL) in the carrier, consisting of three parts of paraffin oil and two parts of filamentary vaseline. The mice were sacrificed 24 hours after the last topical application. […]

[4] = Dissolution of xibornol in 4% isopropanol; type: physicochemical
Method: In order to perform the antimicrobial tests in aqueous solutions (broth and agar), said xibornol, a lipophilic molecule, was dissolved in a hydrophilic solvent, and more specifically in isopropanol.

Propionibacterium acnes [5] = assay: Determination of the minimum bactericidal concentration (MBC), inoculation on RCA plates; type: cell-based
Method: as §1, §2, §3, §4
To determine the minimum bactericidal concentration (MBC), 10 μl of solution was taken from each well on the above described plate and inoculated on RCA plates containing the same concentrations of xibornol in 4% isopropanol present in the wells of the plate.

Cc1cc(O)c(C2CC3CCC2(C)C3(C)C)cc1C (racemic) [xibornol, 4,5-dimethyl-2-[1,7,7-trimethylbicyclo[2.2.1]heptan-2-yl]phenol]
MIC (Propionibacterium acnes [1]; Cutibacterium acnes, ATCC 11827 / ATCC 6919, 72 h, strains ATCC-11827 and ATCC-6919, anaerobic, 37° C., 72 hours, xibornol racemate in 4% isopropanol): 4.69 to 9.37 µg/mL (≈ 18.1 to 36.3 µM)
antibacterial efficacy compared with clindamycin (Propionibacterium acnes [1]; Propionibacterium acnes): comparable to that of clindamycin
minimum inhibitory concentration (MIC) (Propionibacterium acnes [1]; strains ATCC-11827 and ATCC-6919, anaerobic, 37° C., 72 hours, xibornol racemate in 4% isopropanol): 9.37 µg/mL (≈ 36.3 µM)
bacterial growth in wells (Propionibacterium acnes [1]; xibornol at 4.69 μg/mL, 2.34 μg/mL, 1.17 μg/mL, 72 hours, PrestoBlue red colour): bacterial growth was observed
concentration of xibornol administrable topically without irritation or sensitisation of the epidermis [2]: less than 5 mg/mL
concentration of xibornol administrable topically without irritation or sensitisation of the epidermis, even more preferably [2]: less than 2.5 mg/mL
Average concentration of IL-8 ([3]; 0.1% xibornol (0.79 mg/mL) in paraffin oil/vaseline carrier, topical once a day for 7 days, ear homogenate supernatant): 190.61 pg/mL
change in IL-8 levels with respect to the control group ([3]; 0.1% xibornol topical, once a day for 7 days): significant reduction
amount of xibornol dissolved by 4% isopropanol [4]: up to 1200 μg/mL
minimum bactericidal concentration (MBC) (Propionibacterium acnes [5]; 10 μl from each well inoculated on RCA plates with the same xibornol concentrations in 4% isopropanol): 9.37 µg/mL (≈ 36.3 µM)
MBC (Propionibacterium acnes [5]; Cutibacterium acnes, 10 μl from each well inoculated on RCA plates with the same xibornol concentrations in 4% isopropanol): 4.69 to 9.37 µg/mL (≈ 18.1 to 36.3 µM)
growth on RCA plates (Propionibacterium acnes [5]; xibornol 4.69 μg/mL): massive growth, comparable to that of the positive control
